Assay results as given in paper PMC10121968, “Fosgonimeton, a Novel Positive Modulator of the HGF/MET System, Promotes Neurotrophic and Procognitive Effects in Models of Dementia” (Neurotherapeutics, 2022).
Non-standard residues stand in square brackets, D forms with d. Residues, ends and D or L forms follow the SMILES beside them. *: point of attachment. Hexanoyl = CCCCCC(=O)*; Ahx = NCCCCCC(=O)O

Columns and labels:
[1] = system: primary rat hippocampal neurons; assay: Neurite outgrowth assay (beta-III tubulin staining); type: cell-based; conditions: 4 days, vs vehicle
Method: On day 0, rat hippocampal neurons from newborn pups were isolated and cultured in brain neuronal culture medium (neurobasal medium supplemented with 5% FBS, 2% B-27 supplement, and 0.003% gentamycin) at 37 °C under 5% CO2. At 1 day in vitro (DIV1), cells were transferred to a poly-D-lysine–coated 24-well plate at approximately 10,000 cells/well. Cells were then grown in […] of serum-free medium and treated with the following: 0.1% dimethyl sulfoxide (DMSO; vehicle), 10 nM dihydrotestosterone (positive control), 10 nM fosgo-AM, 1 nM fosgo-AM, 5 ng/ml HGF, or 5 ng/ml HGF + 1 nM fosgo-AM. All treatments contained a final concentration of 0.1% DMSO. For the neurite outgrowth assay, treatment media were refreshed on DIV3, and cells were processed for analysis on DIV4. For the synaptogenesis assay, treatment media were refreshed on DIV3 and DIV6, and cells were processed for analysis on DIV8. Processing for both the neurite outgrowth and the synaptogenesis assays was performed as follows: media were removed, and cells were fixed with 100% methanol for 20 min at RT before methanol was aspirated and each well was washed twice with Dulbecco’s phosphate-buffered saline (DPBS). Cells were permeabilized using 0.02% […] (ThermoFisher, Waltham, Massachusetts) in DPBS for 2 min at RT without shaking, and plates were blocked with 5% bovine serum albumin (BSA) in DPBS for 1 h at RT. Plates were then incubated overnight at 4 °C with gentle shaking with use of beta-III tubulin antibody (ab201740; Abcam, Boston, Massachusetts) to assess neurite outgrowth or with use of 1:500 rabbit anti–synaptobrevin-II antibody (Synaptic Systems, cat# 104 202, Göttingen, Germany) to assess synaptogenesis. After overnight incubation, plates were washed 3 times with DPBS and incubated for 1 h at RT with use of anti–rabbit immunoglobulin G–secondary antibody conjugated to Alexa Fluor 488 (Life Technologies, Carlsbad, California, 1:500). After 5 DPBS washes, coverslips were mounted on slides using fluorescent mounting medium (Golden Bridge International Labs, Bothell, Washington, cat# E19-s). Imaging was performed using the BX43 Olympus microscope driven by the standard “CellSens” software by Olympus. […] Ten images of single cells from a total of 2 assays were analyzed using NeuroJ plug-in for ImageJ to assess neurite outgrowth, as neurite length and the number of branches per neuron were counted for each cell. For the synaptogenesis assay, synaptic count (number of synapses) and synaptic strength (relative abundance of presynaptic vesicles per synapse as measured by synaptobrevin-II fluorescence intensity) were quantified for each cell. Data were assessed for normality (Shapiro–Wilk) and homoscedasticity (Brown-Forsythe). […]

[2] = Fosgo-AM solubility (turbidity in PBS); type: physicochemical; conditions: 1% DMSO, 37 °C, 2 h
Method: A fosgo-AM dilution series was produced in DMSO. Compound stocks were added in triplicate to a 96-well plate containing PBS, resulting in 1% DMSO concentration, and were incubated at 37 °C for 2 h. Turbidity in the sample wells was determined by absorbance at 620 nm.

[3] = system: rat scopolamine amnesia model; assay: Scopolamine Morris water maze study; type: in vivo; conditions: 1 mg/kg SC
Method: Animals were maintained in accordance with the National Institute of Health Guide for the Care and Use of Laboratory Animals. Rats (14-week-old male Sprague Dawley) from Simonsen laboratories (Gilroy, CA) were used in the scopolamine Morris water maze study. This study was performed at Washington State University and procedures were approved by the Washington State University Institutional Animal Care and Use Committee.
Animals were anesthetized with ketamine hydrochloride plus xylazine (70 mg/kg and 7 mg/kg intraperitoneally, respectively). An intracerebroventricular (ICV) guide cannula (PE-60; Clay Adams, Parsippany, NY) was stereotaxically positioned (model 900; David Kopf Instruments, Tujunga, CA) in the right hemisphere of the brain 1.0 mm posterior and 1.5 mm lateral to the bregma. The guide cannula measured 1.5 cm in length with a heat bulge at 2.5 mm from the beveled tip to control insertion depth. Once in position, the cannula was secured to the skull with screws and dental cement. Animals were housed individually and hand-gentled for 6 days of postsurgical recovery. Histologic verification of cannula placement was accomplished by ICV injection of 4 μL cresyl violet after completion of behavioral testing. Animals for which cannulas were improperly placed were removed from the study.
The Morris water maze consisted of a 183-cm diameter, 64-cm deep tank with a clear circular platform (16-cm diameter) placed 30 cm from the maze wall and submerged 1 cm below the surface of the 26.7 °C water. The maze was virtually divided into 4 equal quadrants with the platform centered in 1 quadrant. Eight visual cues were randomly placed on the maze wall and these cues remained consistent throughout the trials.
Animals received either fosgo-AM (1 mg/kg in DMSO) or volume-matched vehicle (DMSO) by subcutaneous (SC) injection 45 min before testing, followed by ICV injection of scopolamine hydrobromide (105 nmol in 4 μL artificial cerebrospinal fluid [aCSF] over a duration of 40 s) 20 min before testing. […]
Probe trials were conducted on day 9 to determine learning persistence. […] The percentage of trial time spent within the platform region, the number of times that the animal crossed into the platform region, and the average distance from the center of the platform region were recorded. The swimming patterns of the rats were recorded using video tracking software (MediaRecorder and EthoVision software, Noldus, VA, USA).
The daily escape latency (defined as the mean latency to find the platform each day) was calculated for each animal. […] Data collected during the probe trials were assessed for normality (Shapiro–Wilk) and homoscedasticity (Brown-Forsythe) and subsequently analyzed using one-way ANOVA with Bonferroni post hoc tests compared with scopolamine + vehicle controls. […]

[4] = probe trial day 9, vs scopolamine + vehicle

## CCCCCC(=O)N[C@@H](Cc1ccc(O)cc1)C(=O)N[C@H](C(=O)NCCCCCC(N)=O)[C@@H](C)CC [fosgo-AM] (Hexanoyl-Tyr-Ile-[Ahx]-NH2)
[1]; 1 nM fosgo-AM + 5 ng/mL HGF
  neurite length per cell: significantly increased neurite length per cell
[1]; 10 nM
  neurite length per cell: significant increase in neurite length per cell
[1]; HGF ± fosgo-AM
  number of neurite branches: did not reach statistical significance
[2]
  maximum aqueous solubility: less than 50 μg/mL
[3]; 8-day acquisition, scopolamine ICV
  escape latency: reduced escape latency over time
[3]; [4]
  frequency of entering the platform zone: significantly improved
  mean distance from the center of the platform: significantly improved
  percentage of time spent in the platform zone: significantly improved
